Measured values reported in ChEMBL document CHEMBL2331209, “Mechanistic studies of the inactivation of tyrosinase by resorcinol” (Bioorg Med Chem, 2013).

Legend:
[1] = molecular target: T1, Tyrosinase (Homo sapiens) (UniProt P14679); experiment: Inactivation of tyrosinase (unknown origin) assessed as total oxygen uptake using 4-methylcatechol substrate at 850 uM equimolar concentrations resorcinol by spectrophotometry
T1 sequence (whole entry): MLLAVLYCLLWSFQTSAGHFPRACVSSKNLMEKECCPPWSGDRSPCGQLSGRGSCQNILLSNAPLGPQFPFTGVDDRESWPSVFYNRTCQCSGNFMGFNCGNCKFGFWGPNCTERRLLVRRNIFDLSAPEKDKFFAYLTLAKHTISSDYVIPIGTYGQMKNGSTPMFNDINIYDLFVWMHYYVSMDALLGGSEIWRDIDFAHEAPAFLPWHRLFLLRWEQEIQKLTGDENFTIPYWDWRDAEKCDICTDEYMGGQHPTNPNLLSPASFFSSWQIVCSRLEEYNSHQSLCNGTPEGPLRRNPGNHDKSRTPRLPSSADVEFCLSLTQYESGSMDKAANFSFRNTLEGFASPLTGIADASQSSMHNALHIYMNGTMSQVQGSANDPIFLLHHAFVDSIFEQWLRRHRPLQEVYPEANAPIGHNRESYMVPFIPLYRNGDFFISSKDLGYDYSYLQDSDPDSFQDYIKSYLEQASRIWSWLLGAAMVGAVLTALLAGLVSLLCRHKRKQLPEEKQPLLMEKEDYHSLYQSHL

[2] = molecular target: T1, Tyrosinase (Homo sapiens); experiment: Inactivation of tyrosinase (unknown origin) assessed as initial rate of oxygen utilization at absorbance 400 nm using 4-methylcatechol substrate at 850 uM equimolar concentrations resorcinol by spectrophotometry
[3] = molecular target: T1, Tyrosinase (Homo sapiens); experiment: Inactivation of tyrosinase (unknown origin) assessed as initial rate of oxygen utilization using 4-methylcatechol substrate at 850 uM equimolar concentrations resorcinol by spectrophotometry
[4] = molecular target: T1, Tyrosinase (Homo sapiens); experiment: Inactivation of tyrosinase (unknown origin) assessed as decay half-life using 4-methylcatechol substrate at 850 uM equimolar concentrations resorcinol by spectrophotometry
[5] = molecular target: T1, Tyrosinase (Homo sapiens); experiment: Inactivation of tyrosinase (unknown origin) assessed as decay half-life using 4-methylcatechol substrate at 850 uM by spectrophotometry
[6] = molecular target: T1, Tyrosinase (Homo sapiens); experiment: Inactivation of tyrosinase (unknown origin) assessed as initial rate of oxygen utilization using 4-methylcatechol substrate at 850 uM by spectrophotometry
[7] = molecular target: T1, Tyrosinase (Homo sapiens); experiment: Inactivation of tyrosinase (unknown origin) assessed as total oxygen uptake using 4-methylcatechol substrate at 850 uM by spectrophotometry
[8] = molecular target: T1, Tyrosinase (Homo sapiens); experiment: Inactivation of tyrosinase (unknown origin) assessed as initial rate of oxygen utilization at absorbance 400 nm using 4-methylcatechol substrate at 850 uM by spectrophotometry

`Oc1cccc(O)c1O` gave an Activity [1] of 100%, an Activity [2] of 100% and an Activity [3] of 100%.
`Oc1cccc(O)c1F` showed an Activity [1] of 35%, an Activity [2] of 40% and an Activity [3] of 33%. It also gave a Decay half-life [4] of 68%.
Molecule `Cc1cc(O)c(C)c(O)c1` has an Activity [1] of 117%, an Activity [2] of 103% and an Activity [3] of 97%. The Decay half-life [4] was 82%.
Molecule `Oc1cc(O)c(Cl)cc1Cl` has an Activity [1] of 33%, an Activity [2] of 22% and an Activity [3] of 29%. The Decay half-life [4] was 160%.
With `Oc1cc(F)cc(O)c1F` the Activity [1] was 31%, the Activity [2] was 51% and the Activity [3] was 41%. For the same molecule, the Decay half-life [4] was 74%.
For `CCc1ccc(O)cc1O`, the Activity [1] was 0%, the Activity [2] was < 1% and the Activity [3] was 1%.
For `Oc1cccc(O)c1Cl`, the Activity [1] was 69%, the Activity [2] was 79% and the Activity [3] was 60%. The Decay half-life [4] was 72%.
`Cc1cc(O)cc(O)c1` showed an Activity [1] of 28%, an Activity [2] of 46% and an Activity [3] of 63%. For the same molecule, the Decay half-life [4] was 31%.
`Oc1cccc(O)c1` showed an Activity [5] of 75%, an Activity [6] of 32% and an Activity [7] of 37%. It also gave an Activity [8] of 26%.
Molecule `Oc1cc(O)cc(O)c1` has an Activity [1] of 75%, an Activity [2] of 133% and an Activity [3] of 95%. It also gave a Decay half-life [4] of 81%.
`Cc1c(O)cccc1O` was tested, and the Activity [1] was 90%, the Activity [2] was 103% and the Activity [3] was 105%. It also gave a Decay half-life [4] of 82%.
Work on `Oc1cc(O)c(F)cc1F` yielded an Activity [1] of 29%, an Activity [2] of 30% and an Activity [3] of 30%. The Decay half-life [4] was 83%.
`Oc1c(F)c(O)c(F)c(F)c1F` gave an Activity [1] of 75%, an Activity [2] of 86% and an Activity [3] of 91%. The Decay half-life [4] was 97%.
`Oc1ccc(F)c(O)c1F` was tested, and the Activity [1] was 30%, the Activity [2] was 28% and the Activity [3] was 18%. The Decay half-life [4] was 48%.
`Oc1c(Cl)cc(Cl)c(O)c1Cl` was tested, and the Activity [1] was 86%, the Activity [2] was 105% and the Activity [3] was 110%. The Decay half-life [4] was 73%.
`Oc1cc(O)cc(F)c1` showed an Activity [1] of 52%, an Activity [2] of 46% and an Activity [3] of 67%. It also gave a Decay half-life [4] of 122%.
Molecule `Cc1cc(C)c(O)cc1O` has an Activity [1] of 69%, an Activity [2] of 57% and an Activity [3] of 46%. For the same molecule, the Decay half-life [4] was 193%.
With `COc1cc(O)cc(O)c1` the Activity [1] was 26%, the Activity [2] was 62% and the Activity [3] was 64%. For the same molecule, the Decay half-life [4] was 22%.
For `Oc1ccc(F)c(O)c1`, the Activity [1] was 0%, the Activity [2] was 10% and the Activity [3] was 6%.
